Patent US20030226169A1, “DNA sequences encoding antifungal proteins” (priority 1995, published 2003)
≈ marks a conversion by molar mass, not a printed value. Read-outs that look alike come from different tables or passages of the source. Residues, ends and D or L forms follow the SMILES beside them.

Experiments:
[1] = system: Fusarium culmorum (IMI 180420); test: Antifungal growth inhibition microplate assay (photospectrometry); format: cell-based; details: ½ PDB; for F CULMORUM IC: Table 6 / FIG. 8: Rs-AFP1-based 9-mer split peptides
Procedure: (§1) The following fungal strains were used: Alternaria brassicicola (MUCL 20297), Ascophyta pisi (MUCL 30164), Botrytis cinerea (MUCL 30158), Fusarium culmorum (IMI 180420) and Verticillium dahliae (MUCL 19210).
(§2) Fungi were grown on six cereal agar plates at room temperature and under white fluorescent light except for F culmorum and V dahliae which were grown in the dark. The duration of the spore harvest varied between 10 and 25 days depending on the strain. Spores were collected as follows. Five to ten ml of sterile milli-Q water was poured into each dish and the surface of the agar was rubbed with a sterile spatula to obtain a suspension containing mycelium and spores. This suspension was filtered through a sterile glasswool-plugged funnel and the filtrate containing the spores was collected in a sterile polypropylene centrifuge tube. The A brassicicola spores were suspended in sterile 0.1 Tween 20 (Merk, 822184) due to their hydrophobic nature. The spore suspensions were then washed twice by centrifugation at 2,400×g for 15 minutes and resuspended in a small volume of steril milli-Q water. The spore density was determined in a counting chamber and then adjusted to 4×10^7 spores per ml. Aliquots of the spore suspension were transferred to sterile microtubes and an equal volume of sterile 50% glycerol (Merck, 4091) was added to each tube so that a final spore suspension of 2×10^7 spores per ml in 25% glycerol was obtained. After careful mixing of the stock, the spore suspension was transferred in 100 μl aliquots to sterile microtubes and stored at −80° C.
(§3) Antifungal activity was measured by photospectrometry as described by Broekaert et al, (1990, FEMS Microbiol Lett, 69:55-60). Tests were performed by adding 20 μl of test solution and 80 μl of a fungal spore suspension (2×10^4 spores/ml) per well in a sterile flat-bottom 96-well microtiterplate. The spore suspension was prepared by diluting the stock spore suspension ([…] in 25% glycerol) 1:1000 in half-strength potato dextrose broth. A positive growth control consisting of eight wells containing 20 μl of sterile milli-Q water and 80 μl of the fungal spore suspension was included in each test. The microtiterplates were incubated (with the lid on) in an aerated place at room temperature and under conditions of darkness for all test organisms.
(§4) After 30 minutes of incubation (when the spores are settled on the well bottom) the optical density was measured in a microplate reader (Bio Rad 3550-UV) at 595 nm. Incubation of the microtiterplates continued until the optical density of the control microculture was between 0.250 and 0.500, which took approximately 72 hours (96 hours for V dahliae). Percentage of growth inhibition (% GI) was estimated as 100 times the ratio of the corrected absorbance of the control microculture minus the corrected absorbance of the test microculture over the corrected absorbance of the control microculture at 595 nm. The corrected absorbance values equal the absorbance at 595 nm of the culture measured after 72 or 96 hours minus the absorbance at 595 nm measured after 30 minutes.
(§5) % GI=[(Acontrol−Atest/Acontrol]×100
(§6) where Acontrol=(A72/96h−A30min)control
(§7) The IC50 value is defined as the concentration that gives a 50% growth inhibition after 72 or 96 hours of incubation. The minimum inhibitory concentration (MIC) corresponds to the minimum concentration that gives 100% growth inhibition after 72 or 96 hours incubation.

[2] = system: Ascophyta pisi (MUCL 30164); format: cell-based; details: for A PISI IC: the source numbers peptides by N-terminal amino acid
Procedure: as §1, §2, §3, §4, §5, §6, §7

[3] = system: F culmorum; test: Antifungal activity of combinations of Rs-AFP and 15-mer peptides; format: cell-based, Fusarium culmorum; details: 100 x MIC of Rs-AFP2 / MIC of Rs-AFP2/peptide combination; 15-mer peptide added at 20 μg/ml; SMF medium; BSA-coated plates; Rs-AFP2 alone = 100
Procedure: The 15-mer peptides were tested for their ability to affect the antifungal activity of the Rs-AFP2 protein (SEQ ID NO: 35). Each peptide was added at a subinhibitory concentration (20 μg/ml ) to a twofold dilution series of Rs-AFP2 (SEQ ID NO: 35) ranging from 20 μg/ml down to 0.15 μg/ml. In the control series only water was added.
The target fungus was F culmorum and the growth medium was SMF. In order to exclude the effect of differential binding of the peptides to the microplate wells, the plates were coated with bovine serum albumin. […] The relative specific activity is defined as one hundred times the MIC of Rs-AFP2 divided by the MIC of the Rs-AFP2/peptide combination. Data are based on duplicate tests.

[4] = Table 3 / FIG. 6: Rs-AFP2-based 9-mer split peptides, the source numbers peptides by N-terminal amino acid
[5] = Table 3: Rs-AFP2-based 9-mer split peptides, duplicate
[6] = the source numbers peptides by N-terminal amino acid
[7] = Table 6: Rs-AFP1-based 9-mer split peptides
[8] = Table 6: Rs-AFP1-based 9-mer split peptides, ½ PDB
[9] = Table 4 / FIG. 6: Rs-AFP2-based 12-mer split peptides, the source numbers peptides by N-terminal amino acid
[10] = Table 4: Rs-AFP2-based 12-mer split peptides, triplicate
[11] = Table 7 / FIG. 8: Rs-AFP1-based 12-mer split peptides, the source numbers peptides by N-terminal amino acid
[12] = Table 7: Rs-AFP1-based 12-mer split peptides
[13] = Table 7: Rs-AFP1-based 12-mer split peptides, ½ PDB

Compound	IC50 [1, 4] [µg/mL]	MIC [1, 5] [µg/mL]	F CULMORUM IC [1, 6] [µg/mL]	F CULMORUM MIC [1, 7] [µg/mL]	A PISI MIC [2, 8] [µg/mL]	A PISI IC [2, 8] [µg/mL]	IC50 [1, 9] [µg/mL]	MIC [1, 10] [µg/mL]	F CULMORUM IC50 [1, 11] [µg/mL]	F CULMORUM MIC [1, 12] [µg/mL]	A PISI IC50 [2, 13] [µg/mL]	A PISI MIC [2, 13] [µg/mL]	further results
CC[C@H](C)[C@H](NC(=O)[C@H](CS)NC(=O)[C@H](CCCCN)NC(=O)[C@H](Cc1c[nH]cn1)NC(=O)[C@H](C)NC(C)=O)C(=O)N[C@@H](CS)C(=O)N[C@@H](Cc1ccc(O)cc1)C(=O)N[C@@H](Cc1ccccc1)C(=O)N1CCC[C@H]1C(N)=O [compound 88] (Ac-AHKCICYFP-NH2)	35 (≈ 31.2 µM)	50 (≈ 44.5 µM)	21	37.5	25	18							
Ac-KARHGSCNYVFP-NH2 [compound 119]							37	50	33	50	66	100	
CC[C@H](C)[C@H](NC(=O)[C@H](CS)NC(=O)[C@H](CCC(N)=O)NC(=O)[C@H](CC(N)=O)NC(=O)[C@H](CCCCN)NC(=O)[C@H](CS)NC(=O)[C@H](C)NC(=O)[C@H](CC(N)=O)NC(=O)[C@H](CC(N)=O)NC(=O)[C@H](CC(N)=O)NC(=O)CNC(=O)[C@H](CS)NC(=O)[C@@H](NC(=O)CNC(C)=O)C(C)C)C(=O)N[C@@H](CCCNC(=N)N)C(N)=O [Peptide 4 (Rs-AFP2 15-mer)] (Ac-GVCGNNNACKNQCIR-NH2; N-terminus and C-terminus assumed)													Relative Specific Antifungal Activity [3]: 180
Ac-CNYVFPAHK-NH2 [compound 82]	77	100	113	150	400	265							
CC[C@H](C)[C@H](NC(=O)[C@H](CS)NC(=O)[C@H](CCCCN)NC(=O)[C@H](Cc1c[nH]cn1)NC(=O)[C@H](C)NC(=O)[C@@H]1CCCN1C(=O)[C@H](Cc1ccccc1)NC(=O)[C@@H](NC(=O)[C@H](Cc1ccc(O)cc1)NC(=O)[C@H](CC(N)=O)NC(=O)[C@H](CS)NC(=O)[C@H](CO)NC(C)=O)C(C)C)C(N)=O [compound 124] (Ac-SCNYVFPAHKCI-NH2)							135 (≈ 94.9 µM)	200 (≈ 141 µM)	213	300	318	>400	
CC[C@H](C)[C@H](NC(=O)[C@H](CS)NC(=O)[C@H](CCCCN)NC(=O)[C@H](Cc1c[nH]cn1)NC(=O)[C@H](C)NC(=O)[C@@H]1CCCN1C(C)=O)C(=O)N[C@@H](CS)C(=O)N[C@@H](Cc1ccc(O)cc1)C(=O)N[C@@H](Cc1ccccc1)C(N)=O [compound 87] (Ac-PAHKCICYF-NH2)	39 (≈ 34.7 µM)	50 (≈ 44.5 µM)	28	37.5	50	31							
CC[C@H](C)[C@H](NC(=O)[C@H](CS)NC(=O)[C@H](CCCCN)NC(=O)[C@H](Cc1c[nH]cn1)NC(=O)[C@H](C)NC(=O)[C@@H]1CCCN1C(=O)[C@H](Cc1ccccc1)NC(=O)[C@@H](NC(C)=O)C(C)C)C(=O)N[C@@H](CS)C(N)=O [compound 85] (Ac-VFPAHKCIC-NH2)	121 (≈ 114 µM)	200 (≈ 189 µM)	121	200	400	184							
CC(=O)NCC(=O)N[C@@H](CO)C(=O)N[C@@H](CS)C(=O)N[C@@H](CC(N)=O)C(=O)N[C@@H](Cc1ccc(O)cc1)C(=O)N[C@H](C(=O)N[C@@H](Cc1ccccc1)C(=O)N1CCC[C@H]1C(=O)N[C@@H](C)C(=O)N[C@@H](Cc1c[nH]cn1)C(=O)N[C@@H](CCCCN)C(=O)N[C@@H](CS)C(N)=O)C(C)C [compound 123] (Ac-GSCNYVFPAHKC-NH2)							280 (≈ 205 µM)	300 (≈ 220 µM)	266	300	349	>400	
CC[C@H](C)[C@H](NC(=O)[C@H](CS)NC(=O)[C@H](CCCCN)NC(=O)[C@H](Cc1c[nH]cn1)NC(=O)[C@H](C)NC(=O)[C@@H]1CCCN1C(=O)[C@H](Cc1ccccc1)NC(C)=O)C(=O)N[C@@H](CS)C(=O)N[C@@H](Cc1ccc(O)cc1)C(N)=O [compound 86] (Ac-FPAHKCICY-NH2)	144 (≈ 128 µM)	400 (≈ 356 µM)	196	250	200	80							
Ac-LEKARHGSCNYV-NH2 [compound 117]							327	>400	347	400	293	400	
CC[C@H](C)[C@H](NC(=O)[C@H](CS)NC(=O)[C@H](CCCCN)NC(C)=O)C(=O)N[C@@H](CS)C(=O)N[C@@H](Cc1ccc(O)cc1)C(=O)N[C@@H](Cc1ccccc1)C(N)=O [compound 44] (Ac-KCICYF-NH2)													F CULMORUM IC50 ([1]; Table 5 / FIG. 8: Rs-AFP1-based 6-mer split peptides): 376 µg/mL; F CULMORUM MIC ([1]; Table 5: Rs-AFP1-based 6-mer split peptides): >400 tg/ml; A PISI IC50 [2]: 400 µg/mL; A PISI MIC [2]: >400 µg/mL
CC[C@H](C)[C@H](NC(=O)[C@H](CS)NC(=O)[C@H](CCCCN)NC(=O)[C@H](Cc1c[nH]cn1)NC(=O)[C@H](C)NC(=O)[C@@H]1CCCN1C(=O)[C@H](Cc1ccccc1)NC(=O)[C@@H](NC(=O)[C@H](Cc1ccc(O)cc1)NC(C)=O)C(C)C)C(=O)N[C@@H](CS)C(=O)N[C@@H](Cc1ccc(O)cc1)C(=O)N[C@@H](Cc1ccccc1)C(N)=O [compound 127] (Ac-YVFPAHKCICYF-NH2)									354	>400	302	400	
Ac-EKARHGSCNYVF-NH2 [compound 118]							154	200	63	100	91	200	
Ac-ARHGSCNYV-NH2 [compound 77]	189	300	193	300	200	143							
CC[C@H](C)[C@H](NC(=O)[C@H](CS)NC(=O)[C@H](CCCCN)NC(=O)[C@H](Cc1c[nH]cn1)NC(=O)[C@H](C)NC(=O)[C@@H]1CCCN1C(=O)[C@H](Cc1ccccc1)NC(=O)[C@@H](NC(=O)[C@H](Cc1ccc(O)cc1)NC(=O)[C@H](CC(N)=O)NC(C)=O)C(C)C)C(=O)N[C@@H](CS)C(=O)N[C@@H](Cc1ccc(O)cc1)C(N)=O [compound 126] (Ac-NYVFPAHKCICY-NH2)							201 (≈ 134 µM)	300 (≈ 200 µM)	189	300	298	400	
